Data on 26 molecules can be found in patent publication US9593108B2, “Compounds and methods for antiviral treatment” (PTC Therapeutics, Inc., priority 2009, dated 2017).

In data set [1] the test system is HCV replicon RNA (GenBank Accession No. AJ242654). The experiment in a line: HCV Replicon Assay (replicon RNA reduction and/or Fluc reporter signal). The class given is cell-based, Hepatitis C virus. The following applies: Hepatitis C virus, 72 h, replicon-containing cells cultured with test compound for up to 3 days. The gist of the method:
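Bicistronic replicon-containing cells cultured with compound for up to 3 days, with interferon as positive control. Inhibition quantified by replicon RNA reduction and/or Fluc reporter signal; IC50 values generally derived from replicon RNA reduction.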
For orientation: A replicon is a self-replicating genome or part of one, used to study replication in cells.

A value given as a limit tells only on which side of the number the result lay.

One may read the IC50 as the concentration that inhibits the measured activity by half. Low values mean inhibition by little substance, high ones a need for much substance. The term melting point denotes the temperature of the solid-liquid transition.

Take `CC1(NS(=O)(=O)c2cnc(-c3c(C#N)c4cc(C5CC5)cnc4n3C3CCC3)nc2)CC1` [Cpd 129, 2-(3-cyano-1-cyclobutyl-5-cyclopropyl-1H-pyrrolo[2,3-b]pyridin-2-yl)-N-(1-methylcyclopropyl)pyrimidine-5-sulfonamide]: the melting point lay within 161 to 169 °C. In data set [1], this molecule gave an IC50 below 500 nM.
For `N#Cc1c(-c2ccc(S(=O)(=O)NC(CF)CF)cc2)n(C2CCC2)c2ncc(C3CC3)cc12` [Cpd 130, 4-(3-cyano-1-cyclobutyl-5-cyclopropyl-1H-pyrrolo[2,3-b]pyridin-2-yl)-N-(1,3-difluoropropan-2-yl)benzenesulfonamide], in that order: 225 to 230 °C and below 500 nM.
The molecule `N#Cc1c(-c2ncc(S(=O)(=O)NC(CF)CF)cn2)n(C2CCC2)c2ncc(C3CC3)cc12` [Cpd 132, 2-(3-cyano-1-cyclobutyl-5-cyclopropyl-1H-pyrrolo[2,3-b]pyridin-2-yl)-N-(1,3-difluoropropan-2-yl)pyrimidine-5-sulfonamide] returned a melting point of 189 to 197 °C. This molecule also registered an IC50 in data set [1] below 500 nM.
Regarding `N#Cc1c(-c2ccc(S(=O)(=O)NC3CC3)cn2)n(C2CCC2)c2ncc(C3CC3)cc12` [Cpd 133, 6-(3-cyano-1-cyclobutyl-5-cyclopropyl-1H-pyrrolo[2,3-b]pyridin-2-yl)-N-cyclopropylpyridine-3-sulfonamide], the melting point lay within 169 to 174 °C. In data set [1], this molecule registered an IC50 below 500 nM.
`N#Cc1c(-c2ccc(S(=O)(=O)NC3CCC3)cn2)n(C2CCC2)c2ncc(C3CC3)cc12` [Cpd 134, 6-(3-cyano-1-cyclobutyl-5-cyclopropyl-1H-pyrrolo[2,3-b]pyridin-2-yl)-N-cyclobutylpyridine-3-sulfonamide] showed a melting point of 189 to 197 °C. The same molecule registered an IC50 in data set [1] below 500 nM.
For `CC(C)NS(=O)(=O)c1cnc(-c2c(C#N)c3cc(C4CC4)cnc3n2C2CCC2)nc1` [Cpd 136, 2-(3-cyano-1-cyclobutyl-5-cyclopropyl-1H-pyrrolo[2,3-b]pyridin-2-yl)-N-(propan-2-yl)pyrimidine-5-sulfonamide], in that order: 187 to 195 °C and below 500 nM.
The molecule `Cc1ccc2c(C#N)c(-c3ncc(S(=O)(=O)N[C@@H](C)C(F)(F)F)cn3)n(C3CCC3)c2n1` [Cpd 137, 2-(3-cyano-1-cyclobutyl-6-methyl-1H-pyrrolo[2,3-b]pyridin-2-yl)-N-[(2S)-1,1,1-trifluoropropan-2-yl]pyrimidine-5-sulfonamide] gave a melting point of 207 to 212 °C. For the same molecule, the IC50 in data set [1] was below 500 nM.
For `Cc1ccc2c(C#N)c(-c3ncc(S(=O)(=O)N[C@H](C)C(F)(F)F)cn3)n(C3CCC3)c2n1` [Cpd 138, 2-(3-cyano-1-cyclobutyl-6-methyl-1H-pyrrolo[2,3-b]pyridin-2-yl)-N-[(2R)-1,1,1-trifluoropropan-2-yl]pyrimidine-5-sulfonamide], in that order: 205 to 209 °C and 500 to 2000 nM.
`Cc1ccc2c(C#N)c(-c3ccc(S(=O)(=O)NC4(C(F)(F)F)CC4)cc3)n(C3CCC3)c2n1` [Cpd 140, 4-(3-cyano-1-cyclobutyl-6-methyl-1H-pyrrolo[2,3-b]pyridin-2-yl)-N-[1-(trifluoromethyl)cyclopropyl]benzenesulfonamide] came in with a melting point of 205 to 212 °C. Further, the half-maximal inhibitory concentration (IC50) in data set [1] lay in the range of 500 to 2000 nM.
In turn, `Cc1ccc2c(C#N)c(-c3ccc(S(=O)(=O)NC(C)(C)C)cc3)n(C3CCC3)c2n1` [Cpd 141, N-tert-butyl-4-(3-cyano-1-cyclobutyl-6-methyl-1H-pyrrolo[2,3-b]pyridin-2-yl)benzenesulfonamide] registered a melting point of 194 to 200 °C. In data set [1], this molecule yielded an IC50 of 500 to 2000 nM.
For `Cc1ccc2c(C#N)c(-c3ccc(S(=O)(=O)NC(C)(C)C)cn3)n(C3CCC3)c2n1` [Cpd 142, N-tert-butyl-6-(3-cyano-1-cyclobutyl-6-methyl-1H-pyrrolo[2,3-b]pyridin-2-yl)pyridine-3-sulfonamide], in that order: 181 to 187 °C and below 500 nM.
For `Cc1ccc2c(C#N)c(-c3ccc(S(=O)(=O)NC4(C)CC4)cc3)n(C3CCC3)c2n1` [Cpd 143, 4-(3-cyano-1-cyclobutyl-6-methyl-1H-pyrrolo[2,3-b]pyridin-2-yl)-N-(1-methylcyclopropyl)benzenesulfonamide], in that order: 200 to 207 °C and below 500 nM.
For `Cc1ccc2c(C#N)c(-c3ncc(S(=O)(=O)NC4(C)CC4)cn3)n(C3CCC3)c2n1` [Cpd 144, 2-(3-cyano-1-cyclobutyl-6-methyl-1H-pyrrolo[2,3-b]pyridin-2-yl)-N-(1-methylcyclopropyl)pyrimidine-5-sulfonamide], in that order: 224 to 232 °C and below 500 nM.
`Cc1ccc2c(C#N)c(-c3ccc(S(=O)(=O)NC(CF)CF)cc3)n(C3CCC3)c2n1` [Cpd 145, 4-(3-cyano-1-cyclobutyl-6-methyl-1H-pyrrolo[2,3-b]pyridin-2-yl)-N-(1,3-difluoropropan-2-yl)benzenesulfonamide]: the melting point fell in the range of 182 to 193 °C. Besides, the half-inhibitory concentration (IC50) in data set [1] was below 500 nM.
`Cc1ccc2c(C#N)c(-c3ccc(S(=O)(=O)NC(CF)CF)cn3)n(C3CCC3)c2n1` [Cpd 146, 6-(3-cyano-1-cyclobutyl-6-methyl-1H-pyrrolo[2,3-b]pyridin-2-yl)-N-(1,3-difluoropropan-2-yl)pyridine-3-sulfonamide] showed a melting point of 180 to 188 °C. In addition, the half-maximal inhibitory concentration (IC50) in data set [1] was below 500 nM.
`Cc1ccc2c(C#N)c(-c3ncc(S(=O)(=O)NC(CF)CF)cn3)n(C3CCC3)c2n1` [Cpd 147, 2-(3-cyano-1-cyclobutyl-6-methyl-1H-pyrrolo[2,3-b]pyridin-2-yl)-N-(1,3-difluoropropan-2-yl)pyrimidine-5-sulfonamide] yielded a melting point of 211 to 217 °C. This molecule also yielded a half-inhibitory concentration (IC50) in data set [1] below 500 nM.
Molecule `Cc1ccc2c(C#N)c(-c3ccc(S(=O)(=O)NC4CCC4)cn3)n(C3CCC3)c2n1` [Cpd 148, 6-(3-cyano-1-cyclobutyl-6-methyl-1H-pyrrolo[2,3-b]pyridin-2-yl)-N-cyclobutylpyridine-3-sulfonamide] showed a melting point of 151 to 160 °C. This molecule also registered an IC50 in data set [1] below 500 nM.
`C[C@H](NS(=O)(=O)c1ccc(-c2c(C#N)c3ccc(C4CC4)nc3n2C2CCC2)nc1)C(F)(F)F` [Cpd 151, 6-(3-cyano-1-cyclobutyl-6-cyclopropyl-1H-pyrrolo[2,3-b]pyridin-2-yl)-N-[(2S)-1,1,1-trifluoropropan-2-yl]pyridine-3-sulfonamide] yielded a melting point of 170 to 176 °C. This molecule showed an IC50 in data set [1] below 500 nM.
On to `C[C@@H](NS(=O)(=O)c1ccc(-c2c(C#N)c3ccc(C4CC4)nc3n2C2CCC2)nc1)C(F)(F)F` [Cpd 152, 6-(3-cyano-1-cyclobutyl-6-cyclopropyl-1H-pyrrolo[2,3-b]pyridin-2-yl)-N-[(2R)-1,1,1-trifluoropropan-2-yl]pyridine-3-sulfonamide], for which the melting point is 170 to 176 °C. In data set [1], this molecule had a half-inhibitory concentration (IC50) below 500 nM.
For the molecule `C[C@@H](NS(=O)(=O)c1cnc(-c2c(C#N)c3ccc(C4CC4)nc3n2C2CCC2)nc1)C(F)(F)F` [Cpd 154, 2-(3-cyano-1-cyclobutyl-6-cyclopropyl-1H-pyrrolo[2,3-b]pyridin-2-yl)-N-[(2R)-1,1,1-trifluoropropan-2-yl]pyrimidine-5-sulfonamide], the melting point fell in the range of 244 to 249 °C. In addition, in data set [1], the IC50 is below 500 nM.
As to `CCc1cnc2c(c1)c(C#N)c(-c1ccc(S(=O)(=O)N[C@@H](C)C(F)(F)F)cc1)n2C1CCC1` [Cpd 155, 4-(3-cyano-1-cyclobutyl-5-ethyl-1H-pyrrolo[2,3-b]pyridin-2-yl)-N-[(2S)-1,1,1-trifluoropropan-2-yl]benzenesulfonamide], the melting point was in the range of 194 to 201 °C. This molecule had a half-inhibitory concentration (IC50) in data set [1] below 500 nM.
For `CCc1cnc2c(c1)c(C#N)c(-c1ccc(S(=O)(=O)N[C@H](C)C(F)(F)F)cc1)n2C1CCC1` [Cpd 156, 4-(3-cyano-1-cyclobutyl-5-ethyl-1H-pyrrolo[2,3-b]pyridin-2-yl)-N-[(2R)-1,1,1-trifluoropropan-2-yl]benzenesulfonamide], in that order: 194 to 201 °C and 500 to 2000 nM.
For `C[C@H](NS(=O)(=O)c1ccc(-c2c(C#N)c3ccc(Cl)nc3n2C2CCC2)nc1)C(F)(F)F` [Cpd 161, 6-(6-chloro-3-cyano-1-cyclobutyl-1H-pyrrolo[2,3-b]pyridin-2-yl)-N-[(2S)-1,1,1-trifluoropropan-2-yl]pyridine-3-sulfonamide], the melting point was 172 to 178 °C. Besides, the concentration for half-maximal inhibition (IC50) in data set [1] was below 500 nM.
In the case of `C[C@@H](NS(=O)(=O)c1ccc(-c2c(C#N)c3ccc(Cl)nc3n2C2CCC2)nc1)C(F)(F)F` [Cpd 162, 6-(6-chloro-3-cyano-1-cyclobutyl-1H-pyrrolo[2,3-b]pyridin-2-yl)-N-[(2R)-1,1,1-trifluoropropan-2-yl]pyridine-3-sulfonamide], the melting point fell in the range of 172 to 178 °C. The molecule further had an IC50 in data set [1] below 500 nM.
In the same order, the values of `Cc1ncc2c(C#N)c(-c3ccc(S(=O)(=O)N[C@@H](C)C(F)(F)F)cn3)n(C3CCCC3)c2n1` [Cpd 163, 6-(5-cyano-7-cyclopentyl-2-methyl-7H-pyrrolo[2,3-d]pyrimidin-6-yl)-N-[(2S)-1,1,1-trifluoropropan-2-yl]pyridine-3-sulfonamide] are 212 to 215 °C and 500 to 2000 nM.
For the molecule `Cc1ncc2c(C#N)c(-c3ccc(S(=O)(=O)N[C@@H](C)C(F)(F)F)cc3)n(C3CCCC3)c2n1` [Cpd 164, 4-(5-cyano-7-cyclopentyl-2-methyl-7H-pyrrolo[2,3-d]pyrimidin-6-yl)-N-[(2S)-1,1,1-trifluoropropan-2-yl]benzenesulfonamide], the melting point fell in the range of 202 to 204 °C. This molecule also displayed a half-inhibitory concentration (IC50) in data set [1] of 500 to 2000 nM.
